In ChEMBL document CHEMBL5727953, “Sulfonylcycloalkyl carboxamide compounds” (2020) one finds IC50 data, which are given here for two compounds.

The target of this assay is Transient receptor potential cation channel subfamily A member 1 (Homo sapiens, UniProt O75762). Briefly: Inhibition Assay: IC50 values (effective concentration) of compounds on the human and rat TRPA1 channels were determined using a FLIPR Tetra instrument. CHO cells expressing TRPA1 were plated into 384-well plates, incubated overnight at 37 C, and loaded with BD calcium indicator dye for 1 hr at 37° C. followed by 15 minutes. at room temperature. The assay buffer was Hank's Balanced Salt Solution (HBSS) containing 20 mM HEPES (pH readjusted to 7.4) along with 0.02% BSA.Following dye load and plate cool down, compounds were added to the cells using FLIPR Tetra. Plates were then incubated with compounds for 20 minutes at room temperature prior to adding agonist. Following this incubation, ˜EC80 concentration of cinnamaldehyde (75 uM for human TRPA1 and 45 uM for rat TRPA1) was added to active the channels and block of cinnamaldehyde induced calcium influx was measured.
Sequence of Transient receptor potential cation channel subfamily A member 1 (O75762 whole entry): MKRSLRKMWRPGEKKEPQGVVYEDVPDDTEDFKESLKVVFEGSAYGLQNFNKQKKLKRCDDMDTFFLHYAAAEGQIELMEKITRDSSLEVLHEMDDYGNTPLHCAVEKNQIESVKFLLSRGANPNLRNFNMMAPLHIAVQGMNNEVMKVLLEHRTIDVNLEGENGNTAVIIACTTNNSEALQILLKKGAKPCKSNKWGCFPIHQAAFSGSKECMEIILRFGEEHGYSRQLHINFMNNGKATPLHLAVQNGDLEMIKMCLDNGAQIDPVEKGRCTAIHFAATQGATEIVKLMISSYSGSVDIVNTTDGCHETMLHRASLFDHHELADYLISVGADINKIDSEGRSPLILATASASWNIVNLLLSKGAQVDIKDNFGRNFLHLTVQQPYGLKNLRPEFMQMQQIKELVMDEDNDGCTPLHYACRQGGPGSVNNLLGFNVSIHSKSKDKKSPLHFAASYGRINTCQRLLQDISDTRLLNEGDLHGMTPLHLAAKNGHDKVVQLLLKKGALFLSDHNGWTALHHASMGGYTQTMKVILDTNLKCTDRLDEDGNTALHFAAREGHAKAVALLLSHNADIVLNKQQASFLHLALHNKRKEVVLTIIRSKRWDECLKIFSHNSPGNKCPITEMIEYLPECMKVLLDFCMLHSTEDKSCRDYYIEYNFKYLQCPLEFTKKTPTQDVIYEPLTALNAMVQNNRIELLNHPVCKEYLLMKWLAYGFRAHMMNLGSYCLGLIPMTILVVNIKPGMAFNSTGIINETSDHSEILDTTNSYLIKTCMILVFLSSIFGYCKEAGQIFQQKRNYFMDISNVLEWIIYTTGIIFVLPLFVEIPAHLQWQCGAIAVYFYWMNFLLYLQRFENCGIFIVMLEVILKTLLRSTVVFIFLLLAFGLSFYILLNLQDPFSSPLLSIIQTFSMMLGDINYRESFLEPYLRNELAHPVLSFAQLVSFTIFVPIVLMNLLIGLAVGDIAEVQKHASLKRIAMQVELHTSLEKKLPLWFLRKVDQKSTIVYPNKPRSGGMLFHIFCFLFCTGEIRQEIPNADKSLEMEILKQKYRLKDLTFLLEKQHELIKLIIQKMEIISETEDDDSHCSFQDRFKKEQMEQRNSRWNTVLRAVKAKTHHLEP

By IC50 is commonly meant the concentration needed to halve the response being measured. For `COc1nn(-c2cnc(C(F)(F)F)nc2)cc1CC(=O)N[C@@H]1CC[C@@H]1S(=O)(=O)c1ccc(F)cc1`, the IC50 was 0.246 µM. As for `O=C(Cn1cc(-c2ccc(C(F)(F)F)cc2)cn1)N[C@@H]1CC[C@@H]1S(=O)(=O)c1ccc(F)cc1`, the figure is 0.2 µM.
